Consider one compound from PMC10348910, “Epigenetic reprogramming of cell cycle genes by ACK1 promotes breast cancer resistance to CDK4/6 inhibitor” (Oncogene, 2023).

Broadly, the IC50 is the midpoint of a concentration-inhibition curve.

Molecules are shown by their SMILES.

For data set [1], the system named is MDA-MB-231 lung metastasis. As to the kind of experiment: tail vein assay of cancer metastasis. Type of data set: in vivo, female SCID mice. The following applies: 24 mg/Kg, 5 days a week. The procedure:
To validate the functional significance in vivo, we performed the tail vein assay of cancer metastasis. Briefly, MDA-MB-231 cells were injected in tail veins of female SCID mice and were treated with vehicle or 24 mg/Kg (R)-9b either subcutaneously or orally, for 5 days a week. The mice were euthanized and the lungs were harvested, preserved in 10% neutral buffered formalin, followed by H&E staining. Sections were examined by pathologist (C.W), and scored for metastatic nodules/deposits in 12 × 10 mm area of lung tissue.
MDA-MB-231 cells (2 × 10^5 in PBS), were injected intravenously in the lateral tail vein of female SCID mice. After 10 days, the mice were randomly chosen for treatment with either vehicle, (R)-9b (36 mg/Kg body weight) orally or subcutaneously (s.c.) (24 mg/Kg body weight) for 5 days a week, for 2 weeks. The mice were sacrificed and the lungs were harvested and fixed in 10% neutral buffered formalin. The number of metastatic foci per lung were scored in a blinded fashion by a pathologist (C.W.).

Data set [2] relates to 78 targets (cell surface receptors, ion channels, kinases, nuclear hormone receptors, GPCRs and other relevant enzymes). As to the kind of experiment: DiscoverX SAFETYscan pharmacological profiling (78 assays). The source says:
We performed pharmacological profiling of (R)-9b, to identify undesirable off-target activity profile using DiscoverX SAFETYscan, which has a broad menu containing 78 assays, and provides functional data for cell surface receptors, ion channels, kinases, nuclear hormone receptors, GPCRs and other relevant enzymes, inhibition of which could cause significant toxicity in human clinical trials.

Data set [3] relates to normal breast cell line, MCF10A. Put plainly: proliferation assay, trypan blue exclusion. The format is cell-based. The following applies: Homo sapiens, MCF-10A, 96 h. The procedure:
(§1) Fig. 2 ACK1 regulates breast cancer transcriptome, affecting genes implicated in cell cycle progression. A Chemical structure of (R)-9b. B Breast cancer cell lines were treated with either vehicle or (R)-9b overnight and cell lysates were subjected to immunoprecipitation using ACK1 antibody, followed by immunoblotting with pY284-ACK1 antibody. Lysates were also subjected to immunoblotting with total ACK1 and Actin antibodies, shown in the lower panels. […] C Breast cancer cell lines were treated with varying concentrations of (R)-9b for 96 h and the cell proliferation was measured using Trypan Blue exclusion method. […]
(§2) For proliferation assay, 5 × 10^4 cells were plated in 6-well plate and treated with either vehicle (DMSO) or varying concentrations of (R)-9b or palbociclib in complete media for 96 h and number of viable cells were counted by trypan blue exclusion assay. […] The cells were acquired using the BD FACSCalibur machine (BD Biosciences) and data was analyzed using FlowJo software. […] The data were analyzed using FlowJo software.
(§3) No data was excluded from the analysis. […] Data were expressed as the mean ± SEM. Data between two groups were analyzed with unpaired Student’s t tests using Graphpad Prism (Graphpad Software Inc, California, USA). […]

Another data set deals with breast cancer cell lines. As to the kind of experiment: proliferation assay, trypan blue exclusion. The note with it: 96 h. The format is cell-based. Here is the method: as §1, §2, §3
Another data set deals with pY88-H4. Put plainly: immunoprecipitation and immunoblotting for pY88-H4. Type of data set: cell-based. The note with it: breast cancer cell lines; overnight. The procedure:
Fig. 4 ACK1 epigenetically modifies the chromatin landscape by depositing pY88-H4 activating marks, regulating cell cycle genes. A Breast cancer cell lines were treated with (R)-9b overnight and the cell lysates were subjected to immunoprecipitation using pY88-H4 antibody, followed by immunoblotting with H4 antibody. Lysates were also subjected to immunoblotting with total H4 and Actin antibodies, shown in the lower panels. […] B Venn diagrams summarizing the overlap between sites bound by pY88-H4 in vehicle treated and (R)-9b treated MDA-MB-453 cells. […] Breast cancer cells were subjected to ChIP using pY88-H4 antibody followed by qPCR for (D) CCNB1, (E) CCNB2, and (F) CDC20 genes. For (A), representative images of three independent experiments are shown. For (D–F), data are represented as the mean ± SEM. *p < 0.05, **p < 0.01, ***p < 0.001, unpaired two-tailed Student’s t test.
(§4) Vehicle or (R)-9b (5 µM, overnight in serum free media) treated cells were lysed by sonication in receptor lysis buffer (RLB) and lysates were fractionated by SDS-PAGE, and transferred onto a PVDF membrane (Immobilon). […]
In general terms: A western blot detects proteins with antibodies after separation by electrophoresis.

The subject of the next data set is pY284-ACK1. Put plainly: immunoprecipitation and immunoblotting for pY284-ACK1. Type of data set: cell-based. The note with it: MDA-MB-231, HCC-1395, Cal148, T47D, MCF7, SKBR3, MDA-MB-453; overnight. Here is the method:
Fig. 2 ACK1 regulates breast cancer transcriptome, affecting genes implicated in cell cycle progression. A Chemical structure of (R)-9b. B Breast cancer cell lines were treated with either vehicle or (R)-9b overnight and cell lysates were subjected to immunoprecipitation using ACK1 antibody, followed by immunoblotting with pY284-ACK1 antibody. Lysates were also subjected to immunoblotting with total ACK1 and Actin antibodies, shown in the lower panels. […] C Breast cancer cell lines were treated with varying concentrations of (R)-9b for 96 h and the cell proliferation was measured using Trypan Blue exclusion method. D–H RNA from breast cancer cells treated with vehicle or varying concentrations of (R)-9b overnight, and were subjected to qRT-PCR using CCNB1, CCNB2 and CDC20 primers. Actin or 18S rRNA was used as housekeeping control. For (B), representative images of three independent experiments are shown. For (C), a four parameter, variable slope, non-linear regression curve was computed, representing three independent experiments. For (D–H), data are represented as the mean ± SEM. *p < 0.05, **p < 0.01, ***p < 0.001, unpaired two-tailed Student’s t test.
as §4

Take `CN1CCN(c2ccc(Nc3ncc(Cl)c(NC[C@H]4CCCO4)n3)cc2)CC1` [(R)-9b]: the figures for the lung metastatic deposits in data set [1] ((R)-9b oral) and in data set [1] ((R)-9b subcutaneous) were 2 deposits and “no deposits”, respectively. Also, the “off-target inhibition in SAFETYscan” value in data set [2] was “None of the 78 targets were inhibited significantly”. In addition, the 50% inhibitory concentration (IC50) in data set [3] was 1490 nM; in the data set with breast cancer cell lines it was 250 to 1220 nM. The “pY88-H4 epigenetic marks (immunoblot)” value in the data set on pY88-H4 was “significantly compromised”. Also, in the data set on pY284-ACK1, the “pY284-ACK1 levels (ACK1 activation)” value is given as “reduced pY284-ACK1 levels”.
